Reference: patent US12012410B2, “Substituted pyrazolo[1,5-a]pyrazines for spinal muscular atrophy” (REBORNA BIOSCIENCES, INC., priority 2018, dated 2024)

system: FL-SMN mRNA (SMN transcript containing exons 7 and 8); experiment: Live-cell assay to measure changes in FL-SMN mRNA levels (qPCR) after exposure to the compounds; format: cell-based, human; details: fibroblasts derived from patients SMA (GM03813); 24 hours incubation
Protocol: In this example, each test compound was administered to cultured cells, and changes in the expression levels of mRNA transcripts of SMN, i.e., FL-SMN containing exons 7 and 8 and Delta7 with exon 7 skipped, were examined using PCR.
Fibroblasts derived from patients SMA (GM03813) (Coriell Cell Repositories) were cultured with passages using DMEM (High Glucose) (Life Technologies) supplemented with 10% FBS (Life Technologies). Cells were seeded in tissue-culture-treated 96-well plates (Corning) at 1.5 or 0.5×10^4 cells/well in 100 μL of medium. The cells were incubated in 5% CO2 for 6 hours, and the medium was replaced with 100 μL of medium (with DMSO, 0.1% final concentration) containing each of the compounds given in the Examples. After additional incubation for 24 hours under the same conditions, the cells were washed once with D-PBS(—) (Wako) and 25 μL/well of the lysis solution (with gDNA Remove) contained in the SuperPrep (registered trademark) Cell Lysis & RT Kit for qPCR (Toyobo life science) was added according to the manufacturer's instructions so that the cells were lysed and the genomic DNA was degraded. Furthermore, 5 μL of the STOP solution (with RNase Inhibitor) contained in the kit was added to provide RNA-containing solutions. Six microliters of the RNA-containing solutions were each mixed with 14 μL of a reverse transcription solution containing transcriptase together with dNTP, random primers and an oligodT primer. Reverse transcription was performed at 37° C. (15 min), 50° C. (5 min), and 98° C. (5 min), to give total cDNAs. The total cDNAs were diluted 30-fold with Ultra-pure water (Invitrogen) to measure the expression levels of FL-SMN, delta7, and GAPDH. For quantitative PCR (qPCR), a PCR solution was prepared according to the instructions of the manufacturer of the THUNDERBIRD (registered trademark) Probe qPCR Mix (Toyobo life science). Five microliters of the diluted total cDNA solutions and oligo DNA standard solutions, each containing either 001-Standard FL-SMN (SEQ ID NO. 1) or 002-Standard delta7 (SEQ ID NO. 2), were each mixed with 10 μL of each of the PCR solutions containing a qPCR probe, primers, and PCR enzyme. […] The oligoDNA standard solutions were prepared as those containing either of 5×10^8, 5×10^7, 5×10^6, 5×10^5, 5×10^4, 5×10^3, 5×10^2, 5×10, 5, or 0 copies. For the oligo DNA standards, primers, and probes, oligonucleotides synthesized by Integrated DNA Technologies, Inc. (IDT) were used. […] FIGS. 3B and 3D show their detection mechanisms. The final concentrations of the primers and probes added were 0.4 μM and 0.15 μM, respectively. The qPCR was performed using the following conditions on a ViiA7 instrument (Applied Biosystems): first stage: 95° C. (1 min)→second stage: 95° C. (15 sec)→third stage: 60° C. (1 min)→40 repeated cycles of the second and third stages. The GAPDH mRNA was used as the internal control, and the commercially available 20×gene expression PCR assay (Life Technologies, 4326317E, Hs99999905_ml) and Standard GAPDH (SEQ ID NO. 7) (see FIG. 1) was used to determine the number of copies of this gene. The measurement values obtained for the samples to be measured were standardized against the respective value obtained for GAPDH.
Using the above-mentioned assays, the activities of the compounds of the Examples were evaluated. Specifically, the percentages of the FL-SMN and delta7 values obtained using DMSO without the compounds and standardized against GAPDH were set as 100% and those of the FL-SMN and delta7 values obtained at the time of administration of the compounds and standardized against GAPDH were calculated. […]

Row | Compound | Percentage of increase (FL-SMN mRNA standardized against GAPDH, DMSO control set as 100%)
1 | CN1CCC(c2ccc3nc(-c4cc5n(n4)CCOC5)[nH]c(=O)c3c2)CC1 [Example 46, 2-(6,7-dihyrdo-4H-pyrazolo[5,1-c][1,4]oxazin-2-yl)-6-(1-methylpiperidin-4-yl)quinazolin-4(3H)-one] | * (equal to or higher than 100% but lower than 120%)
2 | COc1cccc(-c2nc3ccc(C4CCN(C)CC4)cc3c(=O)[nH]2)c1F [Example 47, 2-(2-fluoro-3-methoxyphenyl)-6-(1-methylpiperidin-4-yl)quinazolin-4(3H)-one] | * (equal to or higher than 100% but lower than 120%)
3 | COc1ccnc(-c2nc3ccc(C4CCN(C)CC4)cc3c(=O)[nH]2)c1 [Example 48, 2-(4-Methoxypyridin-2-yl)-6-(1-methylpiperidin-4-yl)quinazolin-4(3H)-one] | * (equal to or higher than 100% but lower than 120%)
4 | COc1ccc(F)c(-c2nc3ccc(C4CCN(C)CC4)cc3c(=O)[nH]2)c1 [Example 49, 2-(2-fluoro-5-methoxyphenyl)-6-(1-methylpiperidin-4-yl)quinazolin-4(3H)-one] | * (equal to or higher than 100% but lower than 120%)
5 | Cc1cn2cc(-c3nc4ccc(N5CCN(C)CC5)cc4c(=O)[nH]3)nc2c(C)n1 [Example 50, 2-(6,8-dimethylimidazo[1,2-a]pyrazin-2-yl)-6-(4-methylpiperazin-1-yl)quinazolin-4(3H)-one] | ** (equal to or higher than 120% but lower than 150%)
6 | COc1cc2nc(-c3cc4c(C)nc(C)cn4n3)[nH]c(=O)c2cc1C1CCN(C)CC1 [Example 51, 2-(4,6-dimethylpyrazolo[1,5-a]pyrazin-2-yl)-7-methoxy-6-(1-methylpiperidin-4-yl)quinazolin-4(3H)-one] | * (equal to or higher than 100% but lower than 120%)
7 | COc1cc(C2CCN(C)CC2)cc2c(=O)[nH]c(-c3cc4c(C)nc(C)cn4n3)nc12 [Example 52, 2-(4,6-dimethylpyrazolo[1,5-a]pyrazin-2-yl)-8-methoxy-6-(1-methylpiperidin-4-yl)quinazolin-4(3H)-one] | ** (equal to or higher than 120% but lower than 150%)
8 | Cc1cn2cc(-c3nc4ccc(N5CCN(C)CC5)cc4c(=O)[nH]3)cc(F)c2n1 [Example 53, 2-(8-fluoro-2-methylimidazo[1,2-a]pyridin-6-yl)-6-(4-methylpiperazin-1-yl)quinazolin-4(3H)-one] | ** (equal to or higher than 120% but lower than 150%)
9 | Cc1nc(C)c2cc(-c3nc4ccc(N5CCN(C)CC5)cc4c(=O)[nH]3)nn2c1C [Example 54, 6-(4-methylpiperazin-1 - yl)-2-(4,6,7-trimethylpyrazolo[1,5-a]pyrazin-2-yl)quinazolin-4(3H)-one] | * (equal to or higher than 100% but lower than 120%)
10 | Cc1cn2cc(-c3nc4ccc(N5CCN(C)CC5)cc4c(=O)[nH]3)cc(C)c2n1 [Example 55, 2-(2,8-dimethylimidazo[1,2-a]pyridin-6-yl)-6-(4-methylpiperazin-1-yl)quinazolin-4(3H)-one] | ** (equal to or higher than 120% but lower than 150%)
11 | Cc1cn2cc(-c3nc4cc(F)c(N5CCN(C)CC5)cc4c(=O)[nH]3)cc(F)c2n1 [Example 56, 7-fluoro-2-(8-fluoro-2-methylimidazo[1,2-a]pyridin-6-yl)-6-(4-methylpiperazin-1-yl)quinazolin-4(3H)-one] | ** (equal to or higher than 120% but lower than 150%)
12 | Cc1cn2cc(-c3nc4cc(F)c(N5CCN(C)CC5)cc4c(=O)[nH]3)cc(C)c2n1 [Example 57, 2-(2,8-dimethylimidazo[1,2-a]pyridin-6-yl)-7-fluoro-6-(4-methylpiperazin-1 - yl)quinazolin-4(3H)-one] | ** (equal to or higher than 120% but lower than 150%)
13 | Cc1cn2cc(-c3nc4ccc(N5CCN(C)CC5)cc4c(=O)[nH]3)ccc2n1 [Example 58, 2-(2-methylimidazo[1,2-a]pyridin-6-yl)-6-(4-methylpiperazin-1-yl)quinazolin-4(3H)-one] | ** (equal to or higher than 120% but lower than 150%)
14 | Cc1nn(C)c2cc(F)c(-c3nc4ccc(N5CCN(C)CC5)cc4c(=O)[nH]3)cc12 [Example 59, 2-(6-fluoro-1,3-dimethyl-1H-indazol-5-yl)-6-(4-methylpiperazin-1-yl)quinazolin-4(3H)-one] | * (equal to or higher than 100% but lower than 120%)
15 | Cc1cn2cc(-c3ccc4nc(C5CCN(C)CC5)[nH]c(=O)c4c3C)ccc2n1 [Example 60, 5-methyl-6-(2-methylimidazo[1,2-a]pyridin-6-yl)-2-(1-methylpiperidin-4-yl)quinazolin-4(3H)-one] | ** (equal to or higher than 120% but lower than 150%)
16 | Cc1cn2c(C)c(-c3ccc4nc(C5CCN(C)CC5)[nH]c(=O)c4c3)ccc2n1 [Example 61, 6-(2,5-dimethylimidazo[1,2-a]pyridin-6-yl)-2-(1-methylpiperidin-4-yl)quinazolin-4(3H)-one] | * (equal to or higher than 100% but lower than 120%)
17 | Cc1cn2cc(-c3cc4c(=O)[nH]c(C5CCN(C)CC5)nc4cc3C)ccc2n1 [Example 62, 7-methyl-6-(2-methylimidazo[1,2-a]pyridin-6-yl)-2-(1-methylpiperidin-4-yl)quinazolin-4(3H)-one] | * (equal to or higher than 100% but lower than 120%)
18 | Cc1cn2cc(-c3ccc4nc(C5CCN(C)CC5)[nH]c(=O)c4c3)c(C)cc2n1 [Example 63, 6-(2,7-dimethylimidazo[1,2-a]pyridin-6-yl)-2-(1-methylpiperidin-4-yl)quinazolin-4(3H)-one] | * (equal to or higher than 100% but lower than 120%)
19 | Cc1cn2cc(-c3nc4ccc(N5CCN(C)CC5)cc4c(=O)[nH]3)cc2c(C)n1 [Example 64, 2-(1,3-dimethylpyrrolo[1,2-a]pyrazin-7-yl)-6-(4-methylpiperazin-1-yl)quinazolin-4(3H)-one] | * (equal to or higher than 100% but lower than 120%)
20 | CN1CCC(c2nc3ccc(-c4ccc5nccn5c4)cc3c(=O)[nH]2)CC1 [Example 65, 6-(imidazo[1,2-a]pyridin-6-yl)-2-(1-methylpiperidin-4-yl)quinazolin-4(3H)-one] | ** (equal to or higher than 120% but lower than 150%)
21 | CN1CCC(c2nc3ccc(-c4ccc5nc(C(F)(F)F)cn5c4)cc3c(=O)[nH]2)CC1 [Example 66, 2-(1-methylpiperidin-4-yl)-6-[2-(trifluoromethyl)imidazo [1,2-a]pyridin-6-yl]quinazolin-4(3H)-one] | * (equal to or higher than 100% but lower than 120%)
22 | Cc1nc2ccc(-c3ccc4nc(C5CCN(C)CC5)[nH]c(=O)c4c3)cn2c1C [Example 67, 6-(2,3-dimethylimidazo[1,2-a]pyridin-6-yl)-2-(1-methylpiperidin-4-yl)quinazolin-4(3H)-one] | ** (equal to or higher than 120% but lower than 150%)
